Test [1] deals with rice calli. Description: Kill curves: tissue survival of rice calli on herbicide media. The format is cell-based, Oryza sativa. Conditions: determined by kill curves and observations of continued culture. The procedure:
Once tissue culture conditions were determined, further establishment of selection conditions were established through the analysis of tissue survival in kill curves with cycloxydim, tepraloxydim, sethoxydim (FIG. 1) or haloxyfop (not shown). Careful consideration of accumulation of the herbicide in the tissue, as well as its persistence and stability in the cells and the culture media was performed. Through these experiments, a sub-lethal dose has been established for the initial selection of mutated material.
After the establishment of the starting dose of sethoxydim, cycloxydim, tepraloxydim, and haloxyfop in selection media, the tissues were selected in a step-wise fashion by increasing the concentration of the ACCase inhibitor with each transfer until cells are recovered that grew vigorously in the presence of toxic doses (see FIG. 2). The resulting calli were further subcultured every 3-4 weeks to R001M with selective agent. Over 26,000 calli were subjected to selection for 4-5 subcultures until the selective pressure was above toxic levels as determined by kill curves and observations of continued culture. Toxic levels were determined to be 50 μM sethoxydim, 20 μM cycloxydim, 2.5 μM tepraloxydim (FIG. 1) and 10 μM haloxyfop (not shown).

In test [2] the test system is rice plants. Description: Greenhouse spray test of regenerants, rated for herbicide injury. Conditions: 400-1600 g ai/ha, 0.1% methylated seed oil, 1 and 2 weeks after treatment. The format is in vivo, Oryza sativa. The procedure:
Selected mutants and escapes were transferred to small pots. Wild-type cultivars and 3 biovars of red rice were germinated from seed to serve as controls.
After ca. 3 weeks post-transplant, MO regenerants were sprayed using a track sprayer with 400-1600 g ai/ha cycloxydim (BAS 517H) supplemented with 0.1% methylated seed oil. After the plants had adapted to greenhouse conditions, a subset were sprayed with 800 g ai/ha cycloxydim. Once sprayed, plants were kept on drought conditions for 24 hours before being watered and fertilized again. Sprayed plants were photographed and rated for herbicide injury at 1 (FIG. 3) and 2 weeks after treatment (FIG. 4). […] FIGS. 5-15 provide nucleic acid and/or amino acid sequences of acetyl-Coenzyme A carboxylase enzymes from various plants. FIG. 17 provides a graph showing results for mutant rice versus various ACCase inhibitors.

For test [3], the system named is ACCase-inhibitor tolerant rice plants. Description: Field treatment of ACCase-inhibitor tolerant rice plants. To be noted: 600 g/ha treatment, data not shown. Type of test: in vivo.

In test [1], `CCCC(=NOCC)C1=C(O)CC(C2CCCSC2)CC1=O` (stereo not shown) [cycloxydim] came in with a Toxic levels of 20 µM. Also, the herbicide injury entry is listed as “heavily damaged” in test [2] (control plants and tissue culture escapes); “No injury” in test [2] (plants containing the I1,781 (Am)L heterozygous mutation). In test [3], the “herbicide tolerance phenotypes in the field” value was “exhibited”.
In test [1], `CC(Oc1ccc(Oc2ncc(C(F)(F)F)cc2Cl)cc1)C(=O)O` (stereo not shown) [haloxyfop] showed a Toxic levels of 10 µM.
The same measure, in the same setting: the figure for `CCC/C(=N\OCC)C1=C(O)CC(CC(C)SCC)CC1=O` (stereo not shown) [sethoxydim] is 50 µM.
On to `CC/C(=N\OC/C=C/Cl)C1=C(O)CC(C2CCOCC2)CC1=O` (stereo not shown) [tepraloxydim], for which the Toxic levels in test [1] came to 2.5 µM.

The values are drawn from patent US20120284812A1, “Herbicide-Tolerant Plants” (BASF AGROCHEMICAL PRODUCTS, B.V., priority 2009, published 2012).
